Source: patent publication US20190054054A1, “Methods reducing or preventing oxidation of high density lipoprotein (HDL)” (Amarin Pharmaceuticals Ireland Limited, priority 2017, published 2019)

Assays:
HUVECs [1] = assay: NO and ONOO^− release from HUVECs pretreated with agents, then exposed to oxLDL (Example 11, Objective 1); format: cell-based, human; conditions: pretreatment 30 min, agents at 10 μM, then oxLDL 11 mg/dL up to 3 hr; for NO / ONOO^−: calcium ionophore 1.0 μM
Procedure: The omega-3 fatty acid, cis-5,8,11,14,17-eicosapentaenoic acid (EPA) and docosahexaenoic acid (DHA) were purchased from Sigma-Aldrich (Saint Louis, Mo.) and solubilized in redistilled ethanol to 11 mM under nitrogen atmosphere. EPA and DHA stock solutions were stored at −20° C. until use.
Human umbilical vein endothelial cells (HUVECs) were obtained from healthy, female donors and isolated into primary, proliferating cell cultures (Clonetics, San Diego, Calif.). […] The confluent cells (4 to 5×10^5 cells/35 mm dish) were plated with minimum essential medium containing 3 mM L-arginine and 0.1 mM BH4 [(6R)-5,6,7,8-tetrahydrobiopterin]. Before experimental use, the cells (from second or third passage) were rinsed twice with Tyrode-HEPES buffer with 1.8 mM CaCl2.
Venous blood was collected from healthy volunteers into vacutainer tubes containing sodium EDTA. […] The LDL subfraction was retained for additional experimentation. Plasma and lipoprotein fractions were maintained at 4° C. and protected from excessive exposure to light. Prior to oxidation experiments, EDTA was removed from the lipoprotein fraction using PD-10 desalting columns (GE Healthcare, Piscataway N.J.). After equilibration of the column with phosphate buffered saline (PBS), 2.5 mL of the lipoprotein fraction was loaded on the column and the flow-through discarded. The lipoprotein was then eluted with 3 mL of PBS. The LDL fractions were further diluted with PBS to obtain a 100 μg/mL apoB100 concentration.
LDL underwent oxidation following the addition of 10 μM CuSO4. To measure oxidation, 100 μL aliquots were removed and combined with 1.0 mL thiobarbituric acid (0.5%), 10 μL trichloroacetic acid (5%), 10 μL BHT (5 mg/mL in methanol), and 10 μL EDTA (5 mM). […] Sample TBARS concentrations were determined spectrophotometrically by measuring sample absorbances against a standard curve derived from the hydrolysis of 1,1,3,3-tetramethoxypropane.
Concurrent measurements of NO and ONOO^− were performed with tandem electrochemical nanosensors combined into one working unit with a total diameter of 200-400 nm. Their design is based on previously developed and chemically modified carbon-fiber technology. Each of the nanosensors was made by depositing a sensing material on the tip of a carbon fiber (length 4 to 5 μm, diameter 100-200 nm). The fibers were sealed with nonconductive epoxy and electrically connected to copper wires with conductive silver epoxy. Conductive films of polymeric Ni(II) tetrakis (3-methoxy-4-hydroxyphenyl) porphyrin and Mn(III) [2.2] paracyclophanyl-porphyrin were used for the NO and ONOO^− sensors, respectively.
The amperometric method (with a response time of 0.1 ms) provides a quantitative signal (current) that is directly proportional to changes (from basal levels) in NO or ONOO^− concentration. Amperometric measurements were performed with a Gamry III double-channel potentiostat. Basal NO or ONOO^− levels were measured by differential pulse voltammetry in separate experiments.
All measurements of NO and ONOO^− were performed on intact endothelial cells. The NO/ONOO^− nanosensor module was positioned 5±2 μm from the surface of each individual endothelial cell using a computer-controlled M3301 micromanipulator (x-y-z resolution of 0.2 μm) and microscope (both from World Precision Instruments, Berlin, Germany) fitted with a CD camera. […] Cells will then be treated with calcium ionophore (to maximally stimulate the release of nitrous molecules) and monitored continuously for changes in amperometric current.
Data are presented as mean+S.D. for (N) separate samples or treatment groups. Differences between groups were analyzed using the two-tailed, Student's t-test (for comparisons between only two groups) or ANOVA followed by Dunnett or Student-Newman-Keuls multiple comparisons post-hoc analysis (for comparisons between three or more groups). Alpha error was set to 0.05 in this study.
NO and ONOO^− release were measured following stimulation with calcium.

HUVECs [2] = assay: NO release from HUVECs incubated with agent-treated oxidized sdLDL (Example 12); format: cell-based, human; conditions: for reduction of NO release as compared to vehicle-treated, oxidized sdLDL: oxidized sdLDL pretreated with agent at 10.0 μM
Procedure: All samples, with the exception of non-oxidized sdLDL controls, were subjected to copper-induced oxidation for 1 hour. Human umbilical vein endothelial cells (HUVECs) were incubated with the various sdLDL samples, stimulated with calcium, and monitored for nitric oxide (NO) and peroxynitrite (ONOO^−) release using nanosensor technology.

| SMILES | NO (HUVECs [1]) | ONOO^− (HUVECs [1]) | increase in NO release as compared to non-oxidized sdLDL treatment (HUVECs [2]; EPA-treated, oxidized sdLDL) [%] | increase in NO release as compared to oxidized LDL treatment (HUVECs [2]; EPA-treated, oxidized sdLDL) [%] | HUVEC NO release (HUVECs [2]; exposure to EPA-treated (10.0 μM), oxidized sdLDL) [nM] | NO/ONOO^− Ratio (HUVECs [1]) | NO/ONOO^− Ratio (HUVECs [1]; listed as Gemfib) | reduction of NO release as compared to vehicle-treated, oxidized sdLDL (HUVECs [2]) [%] | NO/ONOO^− Ratio (HUVECs [1]; listed as Niacin) |
| --- | --- | --- | --- | --- | --- | --- | --- | --- | --- |
| CC/C=C\C/C=C\C/C=C\C/C=C\C/C=C\C/C=C\CCC(=O)O [DHA, docosahexaenoic acid] | 378 ± 5 | 229 ± 16 | – | – | – | – | – | – | – |
| CC/C=C\C/C=C\C/C=C\C/C=C\C/C=C\CCCC(=O)O [EPA, cis-5,8,11,14,17-eicosapentaenoic acid] | 394 ± 43 | 228 ± 10 | 23 | 53 | 931 ± 59 | – | – | – | – |
| Cc1ccc(C)c(OCCCC(C)(C)C(=O)O)c1 [gemfibrozil] | 377 ± 24 | 228 ± 11 | – | – | – | 1.65±0.13 | 1.65 ± 0.13 | 33 | – |
| O=C(O)c1cccnc1 [niacin, nicotinic acid] | 346 ± 17 | 238 ± 20 | – | – | – | 1.45±0.14 | – | 45 | 1.45 ± 0.14 |
